Several values for one entry are separate records, joined by “and”; a condition that tells them apart may be missing. Equal entries are not always repeated.
Key:
JB6 = test: Cell proliferation inhibition, ALCL line JB6; assay type: cell-based; settings: Example 4, most sensitive cell lines, read-out: Proliferation IC50 JB6
From the text: (§1) Cell proliferation inhibition assays were run for compound (II) with the five target NPM-ALK-dependent ALCL cell lines (Karpas 299, SuDHL-1, JB6, SupM2, UConn) and 12 unrelated cell lines (HEK293, CHO-K1, MCF7, HepG2, H292, H520, H1581, H596, H522, CHA-GO-K1, UMC-11, SK-MES1). […] The pronounced target cell-killing effect is also observed (molecular mechanisms to be determined).

TrkC = target: T1, TrkC (Homo sapiens, UniProt Q16288); test: Invitrogen SelectScreen Z-lyte kinase assay, TrkC; assay type: biochemical; settings: 100 μM ATP
T1 construct: purchased Invitrogen (SelectScreen service)
T1 sequence (Q16288 32-839): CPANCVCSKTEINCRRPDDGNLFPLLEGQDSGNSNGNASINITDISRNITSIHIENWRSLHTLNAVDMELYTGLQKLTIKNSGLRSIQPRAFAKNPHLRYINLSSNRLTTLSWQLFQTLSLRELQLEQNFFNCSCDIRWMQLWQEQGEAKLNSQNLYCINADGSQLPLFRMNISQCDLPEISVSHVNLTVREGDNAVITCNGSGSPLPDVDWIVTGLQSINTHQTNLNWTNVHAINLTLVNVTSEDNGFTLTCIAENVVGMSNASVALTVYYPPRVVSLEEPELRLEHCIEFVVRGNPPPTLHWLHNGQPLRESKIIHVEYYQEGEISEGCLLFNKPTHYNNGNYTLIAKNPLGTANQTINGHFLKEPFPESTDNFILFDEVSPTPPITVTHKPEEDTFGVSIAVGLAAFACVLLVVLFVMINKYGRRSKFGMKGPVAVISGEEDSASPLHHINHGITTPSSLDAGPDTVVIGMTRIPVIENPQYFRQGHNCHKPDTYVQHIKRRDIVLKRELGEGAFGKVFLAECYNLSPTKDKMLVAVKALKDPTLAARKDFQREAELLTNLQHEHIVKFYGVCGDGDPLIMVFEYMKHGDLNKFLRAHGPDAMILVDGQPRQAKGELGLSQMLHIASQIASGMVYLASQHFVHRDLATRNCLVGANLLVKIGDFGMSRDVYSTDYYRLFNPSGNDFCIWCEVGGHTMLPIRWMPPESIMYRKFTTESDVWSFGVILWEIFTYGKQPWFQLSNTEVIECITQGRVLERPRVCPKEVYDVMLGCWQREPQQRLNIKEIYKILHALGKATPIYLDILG
Method: (§2) To evaluate selectivity versus other kinases, inhibition of various kinases by compound (II) was determined. In particular, IC50s for TrkA, Jak2, Axl tyrosine kinases were determined using ADP Hunter (DiscoverX) kinase assay. Single point profiling of compound (II) on 50 human tyrosine kinases and 10 Ser-Thr kinases was done at Upstate/Millipore by radiometric assay. […] The subset of the 520 kinases in the human kinome that were tested was strategically selected to cover most of the therapeutically relevant tyrosine kinases and to represent major branches of serine-threonine kinases.
(§3) Compound (II) was a multitargeted tyrosine kinase (TK) inhibitor with a distinct pattern of inhibition focused on ALK, Trk family, Ros and Ret kinases. Invitrogen SelectScreen (Z-lyte assay) produced the following IC5O values for this set of kinases: ALK 9.75 nM, TrkA 1.5 nM, TrkB 1.4 nM, TrkC 1.8 nM, Ret 7.1 nM, Ros 1.8 nM (all measured at 100 μM ATP). […] About 70% of the 50 TKs tested have selectivity in excess of 50-fold for ALK and higher for Ret, Ros and Trk family members.

[1] = Metabolic Stability (liver micros., human), Cerep Study 13170; assay type: in vitro ADME; settings: 1.0E−06 M, human liver microsomes
RET = RET (Homo sapiens, UniProt P07949); test: Invitrogen SelectScreen Z-lyte kinase assay, Ret; assay type: biochemical; set-up: purchased Invitrogen (SelectScreen service); settings: 100 μM ATP
Chain of RET (P07949 29-1114): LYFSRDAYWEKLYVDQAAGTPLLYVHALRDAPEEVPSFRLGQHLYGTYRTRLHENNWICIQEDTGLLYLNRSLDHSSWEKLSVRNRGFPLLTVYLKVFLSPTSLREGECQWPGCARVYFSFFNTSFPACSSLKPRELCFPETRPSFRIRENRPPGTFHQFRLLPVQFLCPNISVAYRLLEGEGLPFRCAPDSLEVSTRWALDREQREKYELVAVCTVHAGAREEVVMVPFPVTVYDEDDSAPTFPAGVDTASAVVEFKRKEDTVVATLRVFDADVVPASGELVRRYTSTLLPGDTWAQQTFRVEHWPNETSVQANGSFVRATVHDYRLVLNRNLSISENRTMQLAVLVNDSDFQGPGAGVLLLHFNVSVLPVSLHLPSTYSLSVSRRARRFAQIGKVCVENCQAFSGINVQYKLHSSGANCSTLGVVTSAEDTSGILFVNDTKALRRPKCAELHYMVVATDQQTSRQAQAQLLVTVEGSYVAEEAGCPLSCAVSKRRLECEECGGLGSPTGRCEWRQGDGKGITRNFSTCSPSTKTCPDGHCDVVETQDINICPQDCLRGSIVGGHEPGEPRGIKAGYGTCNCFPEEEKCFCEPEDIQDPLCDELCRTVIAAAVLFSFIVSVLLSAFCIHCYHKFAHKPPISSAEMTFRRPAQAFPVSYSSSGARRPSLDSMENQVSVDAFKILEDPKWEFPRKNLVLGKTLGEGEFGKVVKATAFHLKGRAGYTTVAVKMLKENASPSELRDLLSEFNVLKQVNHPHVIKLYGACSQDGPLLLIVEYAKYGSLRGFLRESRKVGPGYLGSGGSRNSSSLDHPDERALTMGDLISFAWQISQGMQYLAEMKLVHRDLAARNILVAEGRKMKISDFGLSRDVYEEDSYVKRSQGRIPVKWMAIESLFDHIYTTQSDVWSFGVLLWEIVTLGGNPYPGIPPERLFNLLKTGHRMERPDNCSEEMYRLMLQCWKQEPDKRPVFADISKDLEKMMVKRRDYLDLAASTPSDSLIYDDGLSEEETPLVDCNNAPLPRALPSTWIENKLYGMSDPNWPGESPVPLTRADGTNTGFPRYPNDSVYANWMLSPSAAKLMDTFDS
Method: as §2, §3

[2] = test system: non-ALKdependent cell lines; test: Cell proliferation inhibition, non-ALK-dependent control cell lines; assay type: cell-based; settings: 12 unrelated cell lines; read-out: Lowest IC50s for non-ALK-dependent cell lines
From the text: as §1

CYP1A2 = target: T2, CYP1A2 (Homo sapiens, UniProt P05177); test: CYP1A2 Inhibition (recombinant, CEC substrate); assay type: in vitro ADME; settings: for CYP1A2 % Inhibition of Control Values, 1st/2nd/3rd: listed as CRL241, mean
T2 construct: purchased Cerep (contract assay, ADMET Study 13170)
T2 sequence (P05177 1-516): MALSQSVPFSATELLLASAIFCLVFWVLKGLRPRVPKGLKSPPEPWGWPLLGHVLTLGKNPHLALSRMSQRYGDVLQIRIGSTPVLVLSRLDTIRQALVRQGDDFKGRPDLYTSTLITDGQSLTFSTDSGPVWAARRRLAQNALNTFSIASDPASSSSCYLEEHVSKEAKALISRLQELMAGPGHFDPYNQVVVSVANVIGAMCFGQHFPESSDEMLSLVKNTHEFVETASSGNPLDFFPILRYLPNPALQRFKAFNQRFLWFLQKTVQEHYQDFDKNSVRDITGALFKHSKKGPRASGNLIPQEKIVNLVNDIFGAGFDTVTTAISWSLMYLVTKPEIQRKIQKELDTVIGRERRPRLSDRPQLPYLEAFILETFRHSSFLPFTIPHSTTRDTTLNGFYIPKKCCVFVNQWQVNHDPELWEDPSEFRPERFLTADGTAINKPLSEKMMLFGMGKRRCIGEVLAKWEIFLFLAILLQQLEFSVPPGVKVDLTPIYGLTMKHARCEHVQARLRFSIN

CYP2D6 = target: T3, CYP2D6 (Homo sapiens, UniProt P10635); test: CYP2D6 Inhibition (recombinant, MFC substrate); assay type: in vitro ADME
T3 construct: purchased Cerep (contract assay, ADMET Study 13170)
T3 sequence (P10635 whole entry): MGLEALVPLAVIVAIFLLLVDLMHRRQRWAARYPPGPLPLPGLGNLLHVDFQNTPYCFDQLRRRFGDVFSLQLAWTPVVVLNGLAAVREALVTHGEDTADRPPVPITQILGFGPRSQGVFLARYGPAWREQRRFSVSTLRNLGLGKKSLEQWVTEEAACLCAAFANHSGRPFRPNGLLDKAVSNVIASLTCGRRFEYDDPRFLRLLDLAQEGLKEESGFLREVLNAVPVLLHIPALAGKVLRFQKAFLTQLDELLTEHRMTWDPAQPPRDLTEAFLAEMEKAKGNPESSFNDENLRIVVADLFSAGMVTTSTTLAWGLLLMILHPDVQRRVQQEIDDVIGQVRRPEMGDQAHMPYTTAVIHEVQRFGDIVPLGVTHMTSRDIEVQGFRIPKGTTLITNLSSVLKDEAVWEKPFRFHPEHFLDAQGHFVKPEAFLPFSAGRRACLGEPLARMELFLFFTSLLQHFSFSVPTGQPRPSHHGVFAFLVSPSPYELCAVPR

**Q.** Which results are given for `Cc1ccc(F)cc1C[C@H](C)Nc1cc[nH]c(=O)c1-c1nc2cc3c(cc2[nH]1)C(=O)N(CCN1CCCC1)C3` [compound (II)]?
**A.** IC50 (JB6): 5 to 10 nM; IC50 (TrkC): 1.8 nM; Mean Parent Remaining ([1]; 1 hr incubation): 73%; Parent Remaining Mean ([1]; Table 8B): 73%; Parent Remaining 1st/2nd ([1]; Table 8B, listed as CRL241): 70.3% and 76.4%; IC50 (RET): 7.1 nM; IC50 [2]: ~2500 nM; CYP1A2 inhibition (CYP1A2; 1 μM and 5 μM): No inhibition was detected; CYP1A2 % Inhibition of Control Values, 1st/2nd/3rd (CYP1A2; 1.0E−06 M, Table 5B individual results): 106.6%; CYP1A2 % Inhibition of Control Values, 1st/2nd/3rd (CYP1A2; 5.0E−06 M, Table 5B individual results): 90.3%; activity at 1 µM (CYP1A2; recombinant CYP1A2, probe CEC, 1.0E−06 M, Table 5B individual results, read-out: CYP1A2 % Inhibition of Control Values, 1st/2nd/3rd): 110%; activity at 5 µM (CYP1A2; recombinant CYP1A2, probe CEC, 5.0E−06 M, Table 5B individual results, read-out: CYP1A2 % Inhibition of Control Values, 1st/2nd/3rd): 92.1%; inhibition at 1 µM (CYP1A2; recombinant CYP1A2, probe CEC, 1.0E−06 M, read-out: CYP1A2 % Inhibition of Control Values): -7%; inhibition at 5 µM (CYP1A2; recombinant CYP1A2, probe CEC, 5.0E−06 M, read-out: CYP1A2 % Inhibition of Control Values): 10%; CYP2D6 inhibition (CYP2D6; 1 μM and 5 μM): No inhibition was detected; activity at 1 µM (CYP2D6; human, recombinant CYP2D6, probe MFC, 1.0E−06 M, Table 5B individual results, read-out: CYP2D6 % Inhibition of Control Values, 1st/2nd/3rd): 101%; activity at 5 µM (CYP2D6; human, recombinant CYP2D6, probe MFC, 5.0E−06 M, Table 5B individual results, read-out: CYP2D6 % Inhibition of Control Values, 1st/2nd/3rd): 84.9%; inhibition at 1 µM (CYP2D6; human, recombinant CYP2D6, probe MFC, 1.0E−06 M, read-out: CYP2D6 % Inhibition of Control Values): 2%; inhibition at 5 µM (CYP2D6; human, recombinant CYP2D6, probe MFC, 5.0E−06 M, read-out: CYP2D6 % Inhibition of Control Values): 16%
